In article PMC7238120, “Strong and Selective Inhibitory Effects of the Biflavonoid Selamariscina A against CYP2C8 and CYP2C9 Enzyme Activities in Human Liver Microsomes” (Pharmaceutics, 2020):
Values belong to the compound of their own block, whether it stands above or below them.

Assays:
[1] = tested on: CYP2C8 and CYP2C9 versus seven other P450s (CYP1A2, 2A6, 2B6, 2C19, 2D6, 2E1, 3A); assay: Nine-P450 cocktail inhibition in human liver microsomes, statements on the other P450 isoforms; type: in vitro ADME; conditions: human, pooled human liver microsomes; amodiaquine and diclofenac activities versus seven other P450s
Description: (§1) The inhibitory potential of the five biflavonoids on the metabolism of nine P450 probe substrates was evaluated using previously developed methods with minor modifications. Biflavonoids were dissolved in methanol. The final concentration of methanol in the incubation mixture was 1.0% (v/v). We used these P450 probe substrates: phenacetin for CYP1A2, coumarin for CYP2A6, bupropion for CYP2B6, amodiaquine for CYP2C8, diclofenac for CYP2C9, omeprazole for CYP2C19, dextromethorphan for CYP2D6, chlorzoxazone for CYP2E1 and midazolam for CYP3A (Table 1). The incubation mixtures containing pooled human liver microsomes (HLMs, XTreme 200, XenoTech), P450 probe substrates, and inhibitor (0~20 µM) were pre-incubated at 37 °C for 5 min. The concentration range of the inhibitor varied (0, 0.002, 0.005, 0.02, 0.05, and 0.2 µM for CYP2C8; 0, 0.02, 0.05, 0.2, 0.5, and 2 µM for CYP2C9; 0, 0.5, 2, 5, 10, and 20 µM for other P450 isoforms). After pre-incubation, a reduced nicotinamide adenine dinucleotide phosphate (NADPH) generation system containing 1 unit/ml G6PDH, 1.3 mM β- nicotinamide adenine dinucleotide phosphate (β- NADP^+), 3.3 mM MgCl2, and 3.3 mM G6P was added to initiate a reaction, and further incubated for 10 min at 37 °C. The reaction was stopped by adding 50 μL of ice-cold acetonitrile containing 7 nM trimipramine (internal standard, IS). After centrifugation at 18,000 g (5 min, 4 °C), aliquots of supernatants were analyzed by LC–MS/MS (Shimadzu LCMS 8060 system, Shimadzu, Kyoto, Japan). All microsomal incubations were conducted in triplicate.
(§2) All metabolites and the IS were separated on a Kinetex XB-C18 column (100 × 2.10 mm, 2.6 μm, 100 Å; Phenomenex, Torrance, CA, USA) and analyzed using a Shimadzu LCMS 8060 triple-quadrupole mass spectrometer coupled with a Nexera X2 ultra high-performance liquid chromatography system (Shimadzu, Kyoto, Japan) equipped with an electrospray ionization interface. The mobile phase consisted of 0.1% formic acid in water (A) and 0.1% formic acid in acetonitrile (B). […] Electrospray ionization was performed in positive-ion mode at 4000 V or in negative-ion mode at −3500 V. The optimum operating conditions were determined as follows: vaporizer temperature, 300 °C; capillary temperature, 350 °C; collision gas (argon) pressure, 1.5 mTorr. Quantitation was conducted in selected reaction monitoring (SRM) modes with the precursor-to-product ion transition for each metabolite (Table 1 and Table 2).
(§3) We analyzed the data with Shimadzu LabSolution LC–MS software. The IC50 values were calculated by WinNonlin software (Pharsight, Mountain View, CA, USA). […]

[2] = tested on: other P450 isoforms (other than CYP2C8 and CYP2C9); assay: as above; type: in vitro ADME; conditions: human, pooled human liver microsomes; inhibitor 0.5 μM; HLMs; isoforms other than CYP2C8 and CYP2C9; read-out: Inhibition of the other P450 isoform-specific activities
Description: as §1, §2, §3

other P450 isoforms = assay: as above; type: in vitro ADME; conditions: inhibitor 5 μM; HLMs
Description: as §1, §2, §3

[3] = tested on: the other eight P450 enzymes (isoforms other than CYP2C8); assay: as above; type: in vitro ADME; conditions: human, pooled human liver microsomes; isoforms other than CYP2C8; HLMs
Description: as §1, §2, §3

UGT1A1 = target: T1, UGT1A1 (Homo sapiens, UniProt P22309); parameters: method as in PMID 29470958; conditions: read-out: IC50, UGT1A1, previously reported value; cited from earlier work
T1 sequence (P22309 26-533): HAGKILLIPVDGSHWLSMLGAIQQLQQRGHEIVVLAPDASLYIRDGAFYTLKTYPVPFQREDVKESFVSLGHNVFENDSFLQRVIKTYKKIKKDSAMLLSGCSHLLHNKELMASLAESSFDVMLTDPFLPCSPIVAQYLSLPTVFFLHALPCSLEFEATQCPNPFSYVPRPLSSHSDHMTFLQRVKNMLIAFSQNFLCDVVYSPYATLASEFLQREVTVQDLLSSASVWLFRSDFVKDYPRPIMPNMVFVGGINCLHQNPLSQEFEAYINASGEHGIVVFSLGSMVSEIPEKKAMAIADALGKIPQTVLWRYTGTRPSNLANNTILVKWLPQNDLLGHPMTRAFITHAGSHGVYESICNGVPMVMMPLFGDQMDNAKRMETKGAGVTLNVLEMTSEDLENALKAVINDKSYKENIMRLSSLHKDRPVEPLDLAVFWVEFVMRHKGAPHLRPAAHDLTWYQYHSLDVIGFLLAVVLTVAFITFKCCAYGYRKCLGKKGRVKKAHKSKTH

- inhibition at 10 min, 0.5 µM [2]: ≤ 21.8%
Structure (SMILES): O=C1CC(c2cc(-c3c(O)ccc4c(=O)cc(-c5ccc(O)cc5)oc34)c(O)cc2O)Oc2cc(O)cc(O)c21 (centres unmarked) [selamariscina A]
- selectivity ratio at 10 min [1]: > 50

Structure (SMILES): CC(C)(O)c1ccccc1CC[C@@H](SCC1(CC(=O)O)CC1)c1cccc(/C=C/c2ccc3ccc(Cl)cc3n2)c1 [montelukast, reference compound]
- Inhibition of the other six P450 isoforms (other P450 isoforms): negligible inhibition
- IC50 at 10 min [3]: > 9730 nM

Structure (SMILES): O=c1cc(-c2ccc(O)c(-c3c(O)cc(O)c4c(=O)cc(-c5ccc(O)cc5)oc34)c2)oc2cc(O)cc(O)c12 [amentoflavone]
- IC50 (UGT1A1): 780 nM
